The record followed here is paper PMC7307906, “Macrocyclic Modalities Combining Peptide Epitopes and Natural Product Fragments” (Journal of the American Chemical Society, 2020).

The target in assay [1] is T1, human MC3R (Homo sapiens, UniProt P41968).
T1 construct: expressed in transfected cells
The experiment in a line: cAMP assay (LANCE) in T-Rex-293 cells expressing MC3R. Particulars: cAMP assay; mean (± SEM) of at least three independent experiments; read-out: EC50 hMC3R cAMP. The assay is classed as cell-based.

The target of assay [2] is T2, human MC4R (Homo sapiens, UniProt P32245).
T2 construct: expressed in transfected cells
As to the kind of experiment: cAMP assay (LANCE) in T-Rex-293 cells expressing MC4R. Type of assay: cell-based. Particulars: cAMP assay; mean (± SEM) of at least three independent experiments; read-out: EC50 hMC4R cAMP.

The target of assay [3] is T2, human MC4R. The experiment in a line: Melanocortin receptor radioligand binding (SPA, [125I]-NDP-α-MSH displacement), MC4R. The settings on record: competitive binding, mean (± SEM) of at least three independent experiments, read-out: IC50 hMC4R binding.
The next assay addresses T3, human MC5R (Homo sapiens, UniProt P33032).
T3 construct: expressed in transfected cells; host or cells: HEK293-6E suspension cells, transient expression; membranes
The experiment in a line: Melanocortin receptor radioligand binding (SPA, [125I]-NDP-α-MSH displacement), MC5R. The settings on record: for IC50: competitive binding, [125I]-NDP-α-MSH, mean (± SEM) of at least three independent experiments, read-out: IC50 hMC5R binding.

The target in assay [4] is T1, human MC3R. As to the kind of experiment: Melanocortin receptor radioligand binding (SPA, [125I]-NDP-α-MSH displacement), MC3R. Particulars: competitive binding, mean (± SEM) of at least three independent experiments, read-out: IC50 hMC3R binding.
Assay [5] addresses T4, human MC1R (Homo sapiens, UniProt Q01726).
T4 construct: expressed in transfected cells
The experiment in a line: cAMP assay (LANCE) in T-Rex-293 cells expressing MC1R. Particulars: for EC50: cAMP assay, mean (± SEM) of at least three independent experiments, read-out: EC50 hMC1R cAMP; for Emax: T-REx-293, read-out: % Effect hMC1R cAMP. The assay is classed as cell-based.

Assay [6] addresses T4, human MC1R. As to the kind of experiment: Melanocortin receptor radioligand binding (SPA, [125I]-NDP-α-MSH displacement), MC1R. Particulars: competitive binding, mean (± SEM) of at least three independent experiments, read-out: IC50 hMC1R binding.
The next assay addresses T5, SPSB2 (Homo sapiens, UniProt Q99619).
T5 chain: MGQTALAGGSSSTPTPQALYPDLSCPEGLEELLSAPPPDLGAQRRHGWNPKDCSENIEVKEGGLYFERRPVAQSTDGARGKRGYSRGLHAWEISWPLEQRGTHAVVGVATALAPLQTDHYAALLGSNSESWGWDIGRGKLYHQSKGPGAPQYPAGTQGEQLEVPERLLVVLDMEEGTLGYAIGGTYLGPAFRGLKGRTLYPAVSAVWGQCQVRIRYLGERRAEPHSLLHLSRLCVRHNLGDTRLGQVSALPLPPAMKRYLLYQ
As to the kind of experiment: SPR.

Where no end group is shown, it is not given here. [ ]: non-standard residue; d: D form. N‑methyl fused di‑pyrrolidine (I) = not defined here; phenylmethanamine linker (IX) = not defined here; NMeF = CN[C@@H](Cc1ccccc1)C(=O)O; NMeL = CN[C@@H](CC(C)C)C(=O)O; NMeV = CN[C@H](C(=O)O)C(C)C Where only a bound is given, the exact number is not on record here.

T1 sequence (P41968 whole entry): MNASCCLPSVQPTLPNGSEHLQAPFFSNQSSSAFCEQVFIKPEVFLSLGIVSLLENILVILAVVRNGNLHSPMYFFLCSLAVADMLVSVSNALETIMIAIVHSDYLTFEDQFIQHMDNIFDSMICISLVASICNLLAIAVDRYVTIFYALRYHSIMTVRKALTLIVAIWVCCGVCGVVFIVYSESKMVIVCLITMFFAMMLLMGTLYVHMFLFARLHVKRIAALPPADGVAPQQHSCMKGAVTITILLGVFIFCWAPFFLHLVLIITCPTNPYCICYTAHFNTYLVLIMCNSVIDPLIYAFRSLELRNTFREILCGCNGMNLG
T3 sequence (P33032 whole entry): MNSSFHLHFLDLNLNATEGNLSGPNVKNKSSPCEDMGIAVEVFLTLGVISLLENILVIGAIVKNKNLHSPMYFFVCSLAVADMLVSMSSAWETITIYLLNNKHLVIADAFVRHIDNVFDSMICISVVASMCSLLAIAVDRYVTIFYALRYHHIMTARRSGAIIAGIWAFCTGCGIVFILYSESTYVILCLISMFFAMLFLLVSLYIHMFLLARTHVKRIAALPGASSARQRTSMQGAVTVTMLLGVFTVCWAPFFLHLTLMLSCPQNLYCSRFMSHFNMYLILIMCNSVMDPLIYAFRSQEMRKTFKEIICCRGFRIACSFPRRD
T4 sequence (Q01726 whole entry): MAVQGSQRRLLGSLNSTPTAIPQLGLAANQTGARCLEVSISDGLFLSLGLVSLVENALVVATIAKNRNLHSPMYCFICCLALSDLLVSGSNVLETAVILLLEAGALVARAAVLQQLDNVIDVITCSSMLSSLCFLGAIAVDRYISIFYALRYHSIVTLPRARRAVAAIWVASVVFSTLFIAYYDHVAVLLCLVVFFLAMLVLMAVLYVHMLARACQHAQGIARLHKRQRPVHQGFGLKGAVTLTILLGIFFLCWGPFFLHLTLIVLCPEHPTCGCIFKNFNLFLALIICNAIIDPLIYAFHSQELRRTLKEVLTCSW
T2 sequence (P32245 whole entry): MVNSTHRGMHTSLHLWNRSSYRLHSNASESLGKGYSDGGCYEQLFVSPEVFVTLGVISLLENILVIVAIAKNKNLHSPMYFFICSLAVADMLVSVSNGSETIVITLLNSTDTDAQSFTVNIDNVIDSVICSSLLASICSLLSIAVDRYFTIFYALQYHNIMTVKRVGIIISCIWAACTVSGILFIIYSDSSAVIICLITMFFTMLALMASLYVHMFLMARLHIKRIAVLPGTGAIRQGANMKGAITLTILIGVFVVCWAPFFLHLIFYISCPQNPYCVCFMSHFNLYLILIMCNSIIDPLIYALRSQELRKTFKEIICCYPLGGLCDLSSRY

On to `CN1C(=O)[C@@H]2[C@H](C1=O)[C@H]1N[C@@H]2C(=O)N(C)[C@@H](Cc2ccccc2)C(=O)N[C@@H](CCCNC(=N)N)C(=O)N[C@H](Cc2ccccc2)C(=O)N[C@H](Cc2ccccc2)C(=O)N[C@H](C(=O)N[C@@H](Cc2ccc(O)cc2)C(N)=O)CCCCNC(=O)c2ccc1cc2` [O1-minor, [I-FRffK ]Y], for which the EC50 on human MC3R [1], at human MC4R [2] and on human MC1R [5] was greater than 10 µM each time. Moreover, the IC50 on human MC4R [3], on human MC5R, at human MC3R [4] and on human MC1R [6] was greater than 10 µM each time. For the same molecule, the “% Effect hMC1R cAMP at 10 µM” value on human MC1R [5] (% effect at 10 µM, compounds not reaching an upper plateau (#)) worked out at 21%.

In the case of `CN1C(=O)[C@H]2N[C@@H](c3ccc(cc3)C(=O)NCCCC[C@@H](C(=O)NCC(N)=O)NC(=O)[C@H](CC(N)=O)NC(=O)[C@H](Cc3ccccc3)NC(=O)[C@H](Cc3ccccc3)NC(=O)[C@H](CCCNC(=N)N)NC(=O)[C@@H]1Cc1ccccc1)[C@H]1C(=O)N(c3ccccc3)C(=O)[C@H]12` [J3-major*, [ II-FRFFNK ]G], the EC50 on human MC3R [1] is greater than 100 µM; on human MC4R [2] it was greater than 100 µM; at human MC1R [5] it was 14 ± 5 µM. Moreover, the IC50 on human MC4R [3] was greater than 100 µM; at human MC5R, 54 ± 6 µM; at human MC3R [4] it was greater than 100 µM; on human MC1R [6], 78 ± 2 µM. For the same molecule, at human MC1R [5], the Emax turned out to be 63%.

Take `CN1C(=O)[C@@H]2N[C@H](c3ccc(cc3)C(=O)NCCCC[C@@H](C(=O)N[C@@H](Cc3ccc(O)cc3)C(N)=O)NC(=O)[C@H](CC(N)=O)NC(=O)[C@@H](Cc3ccccc3)NC(=O)[C@@H](Cc3ccccc3)NC(=O)[C@H](CCCNC(=N)N)NC(=O)[C@@H]1Cc1ccccc1)[C@@H]1C(=O)N(c3ccccc3)C(=O)[C@@H]12` [K1-major, [II-FRffNK ]Y]: the EC50 is greater than 100 µM at human MC3R [1], greater than 100 µM at human MC4R [2] and 4.1 ± 0.4 µM on human MC1R [5]. Besides, the IC50 on human MC4R [3] amounted to 54 ± 4 µM; at human MC5R, 4.1 µM; at human MC3R [4] it was 19 ± 3 µM; on human MC1R [6], 31 ± 3 µM. In addition, the “selectivity for MC5R against MC1R” value at human MC5R (ratio of binding IC50, MC1R versus MC5R) was found to be 7 fold. Further, the “selectivity for MC5R against MC3R” value on human MC5R (ratio of binding IC50, MC3R versus MC5R) was 5 fold. For the same molecule, the “selectivity for MC5R against MC4R” value at human MC5R (ratio of binding IC50, MC4R versus MC5R) is recorded as 13 fold. Moreover, the Emax on human MC1R [5] was found to be 47%.

`COc1cc(N2C(=O)[C@@H]3[C@H](C2=O)[C@H]2N[C@@H]3c3ccc(cc3)C(=O)NCCCC[C@@H](C(=O)NCC(N)=O)NC(=O)[C@H](CC(N)=O)NC(=O)[C@@H](Cc3ccccc3)NC(=O)[C@@H](Cc3ccccc3)NC(=O)[C@H](CCCNC(=N)N)NC(=O)[C@H](Cc3ccccc3)N(C)C2=O)cc(OC)c1OC` [K5-major, [XI-FRffNK ]G]: the EC50 on human MC3R [1], on human MC4R [2] and on human MC1R [5] was greater than 10 µM in each case. Further, the IC50 on human MC4R [3], on human MC5R, on human MC3R [4] and at human MC1R [6] was greater than 10 µM in each case.

Take `C[C@@H]1NC(=O)[C@H](CC(N)=O)NC(=O)[C@H](Cc2ccccc2)NC(=O)[C@H](Cc2ccccc2)NC(=O)[C@H](CCCNC(=N)N)NC(=O)[C@H](Cc2ccccc2)N(C)C(=O)[C@@H]2N[C@H](c3ccc(cc3)C(=O)NCCCC[C@@H](C(=O)N[C@@H](Cc3ccc(O)cc3)C(N)=O)NC1=O)[C@@H]1C(=O)N(C)C(=O)[C@@H]12` [F1-minor*, [ I-FRFFNAK ]Y]: the values for the EC50 on human MC3R [1], on human MC4R [2] and on human MC1R [5] were greater than 100 µM, greater than 100 µM and 10 ± 1 µM, respectively. For the same molecule, the IC50 on human MC4R [3] is 57 ± 5 µM; on human MC5R it was 16 ± 1 µM; on human MC3R [4], 80 ± 5 µM; on human MC1R [6] it was 65 ± 6 µM. Also, the Emax at human MC1R [5] turned out to be 36%.

`CN1C(=O)[C@H]2N[C@@H](c3ccc(cc3)C(=O)NCCCC[C@@H](C(=O)N[C@@H](Cc3ccc(O)cc3)C(N)=O)NC(=O)[C@H](CC(N)=O)NC(=O)[C@H](Cc3ccccc3)NC(=O)[C@H](Cc3ccccc3)NC(=O)[C@H](CCCNC(=N)N)NC(=O)[C@@H]1Cc1ccccc1)[C@H]1C(=O)N(c3ccccc3)C(=O)[C@H]12` [J2-major, [ II-FRFFNK ]Y]: the EC50 is greater than 100 µM at human MC3R [1], greater than 100 µM at human MC4R [2] and 6.4 ± 0.3 µM on human MC1R [5]. Further, the IC50 is 38 ± 6 µM at human MC4R [3], 11 ± 1 µM at human MC5R, 39 ± 2 µM at human MC3R [4] and 32 ± 1 µM at human MC1R [6]. Besides, on human MC1R [5], the Emax was determined as 46%.

For the molecule `C[C@@H]1NC(=O)[C@H](CC(N)=O)NC(=O)[C@H](Cc2ccccc2)NC(=O)[C@H](Cc2ccccc2)NC(=O)[C@H](CCCNC(=N)N)NC(=O)[C@H](Cc2ccccc2)N(C)C(=O)[C@H]2N[C@@H](c3ccc(cc3)C(=O)NCCCC[C@@H](C(=O)N[C@@H](Cc3ccc(O)cc3)C(N)=O)NC1=O)[C@H]1C(=O)N(c3ccccc3)C(=O)[C@H]12` [F2-minor, [ II-FRFFNAK ]Y], the EC50 on human MC3R [1] is greater than 100 µM; at human MC4R [2] it was greater than 100 µM; on human MC1R [5], 9.3 ± 3.6 µM. For the same molecule, the IC50 on human MC4R [3] came to 91 ± 5 µM; at human MC5R it was 6.5 ± 0.9 µM; on human MC3R [4], 85 ± 6 µM; at human MC1R [6], 81 ± 3 µM. Moreover, at human MC1R [5], the Emax is 40%.

Take `CN1C(=O)[C@@H]2N[C@H](c3ccc(cc3)C(=O)NCCCC[C@@H](C(=O)NCC(N)=O)NC(=O)[C@H](CC(N)=O)NC(=O)[C@@H](Cc3ccccc3)NC(=O)[C@@H](Cc3ccccc3)NC(=O)[C@H](CCCNC(=N)N)NC(=O)[C@@H]1Cc1ccccc1)[C@@H]1C(=O)N(c3ccccc3)C(=O)[C@@H]12` [K3-major, [II-FRffNK ]G]: the EC50 on human MC3R [1], on human MC4R [2] and at human MC1R [5] was greater than 10 µM in each case. Also, the IC50 was greater than 10 µM at human MC4R [3], 4.2 ± 0.1 µM on human MC5R, greater than 10 µM on human MC3R [4] and greater than 10 µM on human MC1R [6]. Further, on human MC1R [5], the Emax worked out at 42%.

On to `CN1C(=O)[C@H]2N[C@@H](c3ccc(cc3)C(=O)NCCCC[C@@H](C(=O)NCC(N)=O)NC(=O)[C@H](Cc3ccccc3)NC(=O)[C@H](Cc3ccccc3)NC(=O)[C@H](CCCNC(=N)N)NC(=O)[C@@H]1Cc1ccccc1)[C@H]1C(=O)N(c3ccccc3)C(=O)[C@H]12` [N2-major*, [II-FRFFK ]G], for which the values for the EC50 on human MC3R [1], at human MC4R [2] and on human MC1R [5] were greater than 100 µM, greater than 100 µM and 14 ± 4 µM, respectively. The IC50 on human MC4R [3] is greater than 100 µM; on human MC5R it was 38 ± 2 µM; on human MC3R [4], greater than 100 µM; on human MC1R [6], greater than 100 µM. At human MC1R [5], the Emax turned out to be 46%.

B1: macrocycle 27 (peptide)
chain: [NMeF]DINNNK
modifications: linker (positions not given here) via phenylmethanamine linker (IX); reading uncertain; also: cyclized via phenylmethanamine linker (IX), attachment points not given here
For the molecule B1, in the assay with SPSB2, the Kd came to 0.087 µM.

B2: iNOS peptide 22 (peptide)
chain: Ac-KEEKDINNNVKKT
Regarding B2, the affinity in the assay with SPSB2, expressed as Kd, was 0.0071 µM.

B3: PepNat D13-major (peptide)
chain: [NMeV]DINNNKG-NH2
modifications: bridge (positions not given here) via N‑methyl fused di‑pyrrolidine (I); reading uncertain; also: macrocycle via N-methyl fused di-pyrrolidine (I)
In the assay with SPSB2, B3 gave an equilibrium dissociation constant (Kd) of 0.015 µM.

B4: PepNat D12-minor (peptide)
chain: [NMeL]DINNNKG-NH2
modifications: bridge (positions not given here) via N‑methyl fused di‑pyrrolidine (I); reading uncertain; also: macrocycle via N-methyl fused di-pyrrolidine (I), minor diastereomer
As to B4, binding with SPSB2 was characterised by a dissociation constant (Kd) of 0.127 µM.

B5: PepNat D1-major (peptide)
chain: [NMeF]DINNNKG-NH2
modifications: bridge (positions not given here) via N‑methyl fused di‑pyrrolidine (I); reading uncertain; also: macrocycle via N-methyl fused di-pyrrolidine (I)
On to B5, for which, in the assay with SPSB2, the Kd is 0.033 µM.

B6: PepNat D13-minor (peptide)
chain: [NMeV]DINNNKG-NH2
modifications: bridge (positions not given here) via N‑methyl fused di‑pyrrolidine (I); reading uncertain; also: macrocycle via N-methyl fused di-pyrrolidine (I), minor diastereomer
Take B6: the Kd in the assay with SPSB2 amounted to 0.078 µM.

B7: PepNat D18-major (peptide)
chain: VDINNNKG
modifications: macrocycle via N-phenyl fused di-pyrrolidine (II), N-Me-Val
Molecule B7 gave a Kd in the assay with SPSB2 of 0.0022 µM.
